Results reported in patent publication US20260216196A1, “IMIDAZO[1,2-A]PYRIDINE AND IMIDAZO[1,2-A]PYRAZINE DERIVATIVES AS MLLT1 AND MLLT3 INHIBITORS” (DARK BLUE THERAPEUTICS LTD., priority 2022, published 2026).
Counter-ions that a name gives are not always drawn.

Columns and labels:
MLLT1 = MLLT1 (Homo sapiens, UniProt Q03111); test: biochemical; conditions: MLLT1 assay IC50 (nM), HTRF, 6His tagged MLLT1, biotinylated H3K9cro peptide; compound 20 μM to 20 nM, 11 data points in duplicate
MLLT3 = MLLT3 (Homo sapiens, UniProt P42568); test: HTRF IC50 determination assay, MLLT3 / H3K9cro peptide displacement; conditions: MLLT3 assay IC50 (nM), 6His tagged MLLT3, biotinylated H3K9cro peptide, compound 20 μM to 20 nM, 11 data points in duplicate
Sequence of MLLT3 (P42568 whole entry): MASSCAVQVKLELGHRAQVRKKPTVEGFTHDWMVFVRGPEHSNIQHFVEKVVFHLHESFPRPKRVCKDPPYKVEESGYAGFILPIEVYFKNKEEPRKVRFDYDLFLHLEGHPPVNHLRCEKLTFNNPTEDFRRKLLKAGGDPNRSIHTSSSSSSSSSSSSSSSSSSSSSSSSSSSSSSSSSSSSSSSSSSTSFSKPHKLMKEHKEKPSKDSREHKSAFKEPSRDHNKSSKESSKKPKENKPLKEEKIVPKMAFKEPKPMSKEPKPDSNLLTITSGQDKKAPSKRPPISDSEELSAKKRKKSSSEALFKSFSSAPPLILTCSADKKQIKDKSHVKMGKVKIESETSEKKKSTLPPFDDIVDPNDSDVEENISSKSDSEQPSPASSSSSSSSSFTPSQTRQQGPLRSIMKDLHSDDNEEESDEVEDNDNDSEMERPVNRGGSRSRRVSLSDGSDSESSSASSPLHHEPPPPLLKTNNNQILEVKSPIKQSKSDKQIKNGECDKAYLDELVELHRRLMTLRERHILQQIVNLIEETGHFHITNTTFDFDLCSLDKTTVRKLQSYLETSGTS

Sequence of MLLT1 (Q03111 whole entry): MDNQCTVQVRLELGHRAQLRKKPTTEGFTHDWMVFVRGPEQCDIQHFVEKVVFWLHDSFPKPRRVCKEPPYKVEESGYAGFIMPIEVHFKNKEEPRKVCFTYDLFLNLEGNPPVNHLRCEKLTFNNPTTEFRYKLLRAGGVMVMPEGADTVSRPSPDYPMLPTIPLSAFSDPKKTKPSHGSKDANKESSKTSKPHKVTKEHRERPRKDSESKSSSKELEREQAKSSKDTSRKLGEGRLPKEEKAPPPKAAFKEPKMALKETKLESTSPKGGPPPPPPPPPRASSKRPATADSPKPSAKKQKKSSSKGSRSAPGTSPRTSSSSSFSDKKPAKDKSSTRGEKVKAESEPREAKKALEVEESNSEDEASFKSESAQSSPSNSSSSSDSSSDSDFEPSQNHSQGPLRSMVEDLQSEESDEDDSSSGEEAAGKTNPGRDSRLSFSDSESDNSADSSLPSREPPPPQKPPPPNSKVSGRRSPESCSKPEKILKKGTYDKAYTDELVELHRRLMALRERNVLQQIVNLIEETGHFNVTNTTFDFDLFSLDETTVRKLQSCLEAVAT

SMILES | IC50 (MLLT1) [nM] | IC50 (MLLT3) [nM]
CN1CCCC1c1cn2cc(NC(=O)c3ccc(Cn4cccn4)cc3)ccc2n1 (racemic) [Example 42, rac-N-[2-(1-methylpyrrolidin-2-yl)imidazo[1,2-a]pyridin-6-yl]-4-[(1H-pyrazol-1-yl)methyl]benzamide] | 150 to 1500 | 1500 to 20000
CN1CCCC1c1cn2cc(NC(=O)c3cccc(-n4cccn4)c3)ccc2n1 (racemic) [Example 43, rac-N-[2-(1-methylpyrrolidin-2-yl)imidazo[1,2-a]pyridin-6-yl]-3-(1H-pyrazol-1-yl)benzamide] | 150 to 1500 | 1500 to 20000
CN1CCCC1c1cn2cc(NC(=O)c3cnc(-c4ccccc4)o3)ccc2n1 (racemic) [Example 46, rac-N-[2-(1-methylpyrrolidin-2-yl)imidazo[1,2-a]pyridin-6-yl]-2-phenyl-1,3-oxazole-5-carboxamide] | 1500 to 20000 | 1500 to 20000
CN1CCCC1c1cn2cc(NC(=O)c3ccc(-c4ncon4)cc3)ccc2n1 (racemic) [Example 51, rac-N-[2-(1-methylpyrrolidin-2-yl)imidazo[1,2-a]pyridin-6-yl]-4-(1,2,4-oxadiazol-3-yl)benzamide] | 150 to 1500 | 1500 to 20000
CN1CCCC1c1cn2cc(NC(=O)c3ccc4c(cnn4C)c3Cl)ccc2n1 (racemic) [Example 52, rac-4-chloro-1-methyl-N-[2-(1-methylpyrrolidin-2-yl)imidazo[1,2-a]pyridin-6-yl]-1H-indazole-5-carboxamide] | 1500 to 20000 | > 20000
CN1CCCC1c1cn2cc(NC(=O)c3cc4ccncc4o3)ccc2n1 (racemic) [Example 54, rac-N-[2-(1-methylpyrrolidin-2-yl)imidazo[1,2-a]pyridin-6-yl]furo[2,3-c]pyridine-2-carboxamide] | 150 to 1500 | 1500 to 20000
CN1CCCC1c1cn2cc(NC(=O)c3ccc4c(c3)c(C3CCNC3)nn4C)ccc2n1 (racemic) [Example 56, rac-1-methyl-N-(2-(1-methylpyrrolidin-2-yl)imidazo[1,2-a]pyridin-6-yl)-3-(pyrrolidin-3-yl)-1H-indazole-5-carboxamide formate] | 150 to 1500 | 150 to 1500
CN1CCCC1c1cn2cc(NC(=O)c3ccc(-c4cnccn4)cc3F)ccc2n1 (single isomer, unassigned) [Example 19] | 150 to 1500 | 1500 to 20000
CN1CCCC1c1cn2cc(NC(=O)c3ccc(-c4ncccn4)cc3F)ccc2n1 (single isomer, unassigned) [Example 20] | 1500 to 20000 | 1500 to 20000
Cc1ncsc1-c1ccc(C(=O)Nc2ccc3nc(C4CCCN4C)cn3c2)c(F)c1 (single isomer, unassigned) [Example 22] | 150 to 1500 | 1500 to 20000
CN1CCCC1c1cn2cc(NC(=O)c3cc(-c4cnccn4)ccc3F)ccc2n1 (single isomer, unassigned) [Example 24] | 150 to 1500 | 1500 to 20000
Cc1ncc(-c2ccc(C(=O)Nc3ccc4nc(C5CCCN5C)cn4c3)c(F)c2)s1 (single isomer, unassigned) [Example 25] | 150 to 1500 | 150 to 1500
CN1CCCC1c1cn2cc(NC(=O)c3cc4ccncc4cc3F)ccc2n1 (single isomer, unassigned) [Example 26] | 150 to 1500 | 150 to 1500
CN1CCCCC1c1cn2cc(NC(=O)c3ccc4c(cnn4C)c3)ccc2n1 (single isomer, unassigned) [Example 27] | 1500 to 20000 | > 20000
CN1CCCCC1c1cn2cc(NC(=O)c3ccc4c(cnn4C)c3)ccc2n1 (single isomer, unassigned) [Example 28] | 150 to 1500 | 150 to 1500
CN1CCCC1c1cn2cc(NC(=O)c3ccc4c(cnn4C)c3)ccc2n1 (single isomer, unassigned) [Example 59] | 1500 to 20000 | 1500 to 20000
CN1CCCC1c1cn2cc(NC(=O)c3ccc4c(cnn4C)c3)ccc2n1 (single isomer, unassigned) [Example 60] | < 150 | 150 to 1500

Other lines, results leading:

IC50 (MLLT1) [nM] | IC50 (MLLT3) [nM] | SMILES
1500 to 20000 | 1500 to 20000 | Cc1c(C(=O)Nc2ccc3nc(C4CCCN4C)cn3c2)sc2nc[nH]c(=O)c12 (racemic) [Example 44, rac-5-methyl-N-[2-(1-methylpyrrolidin-2-yl)imidazo[1,2-a]pyridin-6-yl]-4-oxo-3H,4H-thieno[2,3-d]pyrimidine-6-carboxamide]
150 to 1500 | 150 to 1500 | CN1CCCC1c1cn2cc(NC(=O)c3ccc4c(c3)nnn4C3CCCCC3)ccc2n1 (racemic) [Example 45, rac-1-cyclohexyl-N-[2-(1-methylpyrrolidin-2-yl)imidazo[1,2-a]pyridin-6-yl]-1H-1,2,3-benzotriazole-5-carboxamide]
150 to 1500 | 1500 to 20000 | CN1CCCC1c1cn2cc(NC(=O)c3ccc4cncnc4c3)ccc2n1 (racemic) [Example 47, rac-N-[2-(1-methylpyrrolidin-2-yl)imidazo[1,2-a]pyridin-6-yl]quinazoline-7-carboxamide]
150 to 1500 | 150 to 1500 | CN1CCCC1c1cn2cc(NC(=O)c3ccc4c(c3)c(C3CCCC3)nn4C)ccc2n1 (racemic) [Example 48, rac-3-cyclopentyl-1-methyl-N-[2-(1-methylpyrrolidin-2-yl)imidazo[1,2-a]pyridin-6-yl]-1H-indazole-5-carboxamide]
150 to 1500 | 150 to 1500 | COCCc1nn(C)c2ccc(C(=O)Nc3ccc4nc(C5CCCN5C)cn4c3)cc12 (racemic) [Example 49, rac-3-(2-methoxyethyl)-1-methyl-N-[2-(1-methylpyrrolidin-2-yl)imidazo[1,2-a]pyridin-6-yl]-1 H-indazole-5-carboxamide]
1500 to 20000 | 1500 to 20000 | Cc1noc2nc(C(=O)Nc3ccc4nc(C5CCCN5C)cn4c3)ccc12 (racemic) [Example 50, rac-3-methyl-N-[2-(1-methylpyrrolidin-2-yl)imidazo[1,2-a]pyridin-6-yl]-[1,2]oxazolo[5,4-b]pyridine-6-carboxamide]
150 to 1500 | 150 to 1500 | CN1CCCC1c1cn2cc(NC(=O)c3ccc4[nH]ccc4c3F)ccc2n1 (racemic) [Example 53, rac-4-fluoro-N-[2-(1-methylpyrrolidin-2-yl)imidazo[1,2-a]pyridin-6-yl]-1H-indole-5-carboxamide]
150 to 1500 | 1500 to 20000 | Cc1nn(C)c2cc(C(=O)Nc3cn4cc(C5CCCN5C)nc4cc3F)ccc12 (racemic) [Example 57, rac-N-[7-fluoro-2-(1-methylpyrrolidin-2-yl)imidazo[1,2-a]pyridin-6-yl]-1,3-dimethyl-1H-indazole-6-carboxamide]
1500 to 20000 | 1500 to 20000 | COCCN1CCCC1c1cn2cc(NC(=O)c3ccc4c(C)nn(C)c4c3)ccc2n1 (racemic) [Example 62, rac-N-{2-[1-(2-methoxyethyl)pyrrolidin-2-yl]imidazo[1,2-a]pyridin-6-yl}-1,3-dimethyl-1H-indazole-6-carboxamide]
1500 to 20000 | 1500 to 20000 | CC1CCC(c2cn3cc(NC(=O)c4ccc5c(cnn5C)c4)ccc3n2)N1C (racemic) [Example 63, rac-N-[2-(1,5-dimethylpyrrolidin-2-yl)imidazo[1,2-a]pyridin-6-yl]-1-methyl-1H-indazole-5-carboxamide]
150 to 1500 | 150 to 1500 | CC1CC(c2cn3cc(NC(=O)c4ccc5c(cnn5C)c4)ccc3n2)N(C)C1 (racemic) [Example 64, rac-N-[2-(1,4-dimethylpyrrolidin-2-yl)imidazo[1,2-a]pyridin-6-yl]-1-methyl-1H-indazole-5-carboxamide]
150 to 1500 | 1500 to 20000 | COC1CC(c2cn3cc(NC(=O)c4ccc5c(cnn5C)c4)ccc3n2)N(C)C1 (racemic) [Example 65, rac-N-[2-(4-methoxy-1-methylpyrrolidin-2-yl)imidazo[1,2-a]pyridin-6-yl]-1-methyl-1H-indazole-5-carboxamide]
150 to 1500 | 150 to 1500 | CN1CCCC1c1cn2cc(NC(=O)c3ccc4c(cnn4C)c3)ncc2n1 (racemic) [Example 68, rac-1-methyl-N-[2-(1-methylpyrrolidin-2-yl)imidazo[1,2-a]pyrazin-6-yl]-1H-indazole-5-carboxamide]
< 150 | 150 to 1500 | Cc1nn(C)c2cc(C(=O)Nc3cn4cc(C5CC(C(C)(C)C)CN5C)nc4cn3)ccc12 (racemic) [Example 84, rac-N-[2-(4-tert-butyl-1-methylpyrrolidin-2-yl)imidazo[1,2-a]pyrazin-6-yl]-1,3-dimethylindazole-6-carboxamide]
150 to 1500 | 150 to 1500 | CN1CCCC1c1cn2cc(NC(=O)c3ccc4cc(F)ccc4c3)ccc2n1 (single isomer, unassigned) [Example 5]
1500 to 20000 | 1500 to 20000 | CN1CCCC1c1cn2cc(NC(=O)c3ccc4cc(F)ccc4c3)ccc2n1 (single isomer, unassigned) [Example 6]
1500 to 20000 | 1500 to 20000 | CN1CCCC1c1cn2cc(NC(=O)c3ccc(-c4cncs4)cc3F)ccc2n1 (single isomer, unassigned) [Example 7]
150 to 1500 | 150 to 1500 | CN1CCCC1c1cn2cc(NC(=O)c3ccc(-c4cncs4)cc3F)ccc2n1 (single isomer, unassigned) [Example 8]
150 to 1500 | 150 to 1500 | CN1CCCC1c1cn2cc(NC(=O)c3ccc(-c4cnn(C)c4)cc3F)ccc2n1 (single isomer, unassigned) [Example 21]
150 to 1500 | 150 to 1500 | Cc1ncc(-c2ccc(F)c(C(=O)Nc3ccc4nc(C5CCCN5C)cn4c3)c2)s1 (single isomer, unassigned) [Example 23]
150 to 1500 | 150 to 1500 | Cc1nn(C)c2cc(C(=O)Nc3cn4cc(C5CN(C)CCN5C)nc4cn3)ccc12 (single isomer, unassigned) [Example 67]
